Assay [1] concerns the target T1, NLRP3 (Homo sapiens, UniProt Q96P20). Description: THP-1 cells pyroptosis assay (LPS + nigericin, resazurin readout). The class given is cell-based. Particulars: 1.0 μg/ml LPS, compound 3 hours, nigericin 5 μM 1 hr. Set-up: Seed THP-1 cells (25,000cells/well) containing 1.0 μg/ml LPS; host or cells: THP-1 cells, LPS-primed, nigericin-stimulated. The method, then:
THP-1 cells (ATCC #TIB-202) were grown in RPMI containing L-glutamine (Gibco #11835) supplemented with 1 mM sodium pyruvate (Sigma #S8636) and penicillin (100 units/ml)/streptomycin (0.1 mg/ml) (Sigma #P4333) in 10% Fetal Bovine Serum (FBS) (Sigma #F0804). The cells were routinely passaged and grown to confluency (˜10^6cells/ml). On the day of the experiment, THP-1 cells were harvested and resuspended into RPMI medium (without FBS). The cells were then counted and viability (>90%) checked by Trypan blue (Sigma #T8154). Appropriate dilutions were made to give a concentration of 625,000cells/ml. To this diluted cell solution was added LPS (Sigma #L4524) to give a lug/ml Final Assay Concentration (FAC). 40 μl of the final preparation was aliquoted into each well of a 96-well plate. The plate thus prepared was used for compound screening.
The following method step-by-step assay was followed for compound screening. • 1. Seed THP-1 cells (25,000cells/well) containing 1.0 μg/ml LPS in 40 μl of RPMI medium (without FBS) in 96-well, black walled, clear bottom cell culture plates coated with poly-D-lysine (VWR #734-0317) • 2. Add 5 μl compound (8 points half-log dilution, with 10 μM top dose) or vehicle (DMSO 0.1% FAC) to the appropriate wells • 3. Incubate for 3 hours at 37° C., 5% CO2 • 4. Add 5 μl nigericin (Sigma #N7143) (FAC 5 μM) to all wells • 5. Incubate for 1 hr at 37° C., 5% CO2 • 6. At the end of the incubation period, spin plates at 300×g for 3 mins and remove supernatant • 7. Then add 50 μl of resazurin (Sigma #R^7017) (FAC 100 μM resazurin in RPMI medium without FBS) and incubate plates for a further 1-2 hours at 37° C. and 5% CO2 • 8. Plates were read in an Envision reader at Ex 560 nm and Em 590 nm • 9. IC50 data is fitted to a non-linear regression equation (log inhibitor vs response-variable slope 4-parameters)
A general note: Alamar Blue is a resazurin reagent that responds to reducing activity.

Assay [2] deals with T1, NLRP3. Description: Human whole blood IL-1β release assay (LPS + nigericin, AlphaLisa). Particulars: 1 ug/ml LPS, compound 3 hours, nigericin 10 μM 1 hr, IL-1β in supernatant. The assay is classed as cell-based. On the set-up: Human whole blood in Li-heparin tubes was obtained from healthy donors; from tissue; host or cells: human whole blood from healthy donors, LPS-primed, nigericin-stimulated. The method, then:
For systemic delivery, the ability to inhibit NLRP3 when the compounds are present within the bloodstream is of great importance. For this reason, the NLRP3 inhibitory activity of a number of compounds in human whole blood was investigated in accordance with the following protocol.
Human whole blood in Li-heparin tubes was obtained from healthy donors from a volunteer donor panel. • 1. Plate out 80 μl of whole blood containing lug/ml of LPS in 96-well, clear bottom cell culture plate (Corning #3585) • 2. Add 10 μl compound (8 points half-log dilution with 10 μM top dose) or vehicle (DMSO 0.1% FAC) to the appropriate wells • 3. Incubate for 3 hours at 37° C., 5% CO2 • 4. Add 10 μl nigericin (Sigma #N7143) (10 μM FAC) to all wells • 5. Incubate for 1 hr at 37° C., 5% CO2 • 6. At the end of the incubation period, spin plates at 300×g for 5 mins to pellet cells and remove 20 μl of supernatant and add to 96-well v-bottom plates for IL-1β analysis (note: these plates containing the supernatants can be stored at −80° C. to be analysed at a later date) • 7. IL-1β was measured according to the manufacturer protocol (Perkin Elmer-AlphaLisa IL-1 Kit AL220F-5000) • 8. IC50 data is fitted to a non-linear regression equation (log inhibitor vs response-variable slope 4-parameters)

The structures appear in SMILES notation. Bounds are passed on as bounds.

T1 sequence (Q96P20 whole entry): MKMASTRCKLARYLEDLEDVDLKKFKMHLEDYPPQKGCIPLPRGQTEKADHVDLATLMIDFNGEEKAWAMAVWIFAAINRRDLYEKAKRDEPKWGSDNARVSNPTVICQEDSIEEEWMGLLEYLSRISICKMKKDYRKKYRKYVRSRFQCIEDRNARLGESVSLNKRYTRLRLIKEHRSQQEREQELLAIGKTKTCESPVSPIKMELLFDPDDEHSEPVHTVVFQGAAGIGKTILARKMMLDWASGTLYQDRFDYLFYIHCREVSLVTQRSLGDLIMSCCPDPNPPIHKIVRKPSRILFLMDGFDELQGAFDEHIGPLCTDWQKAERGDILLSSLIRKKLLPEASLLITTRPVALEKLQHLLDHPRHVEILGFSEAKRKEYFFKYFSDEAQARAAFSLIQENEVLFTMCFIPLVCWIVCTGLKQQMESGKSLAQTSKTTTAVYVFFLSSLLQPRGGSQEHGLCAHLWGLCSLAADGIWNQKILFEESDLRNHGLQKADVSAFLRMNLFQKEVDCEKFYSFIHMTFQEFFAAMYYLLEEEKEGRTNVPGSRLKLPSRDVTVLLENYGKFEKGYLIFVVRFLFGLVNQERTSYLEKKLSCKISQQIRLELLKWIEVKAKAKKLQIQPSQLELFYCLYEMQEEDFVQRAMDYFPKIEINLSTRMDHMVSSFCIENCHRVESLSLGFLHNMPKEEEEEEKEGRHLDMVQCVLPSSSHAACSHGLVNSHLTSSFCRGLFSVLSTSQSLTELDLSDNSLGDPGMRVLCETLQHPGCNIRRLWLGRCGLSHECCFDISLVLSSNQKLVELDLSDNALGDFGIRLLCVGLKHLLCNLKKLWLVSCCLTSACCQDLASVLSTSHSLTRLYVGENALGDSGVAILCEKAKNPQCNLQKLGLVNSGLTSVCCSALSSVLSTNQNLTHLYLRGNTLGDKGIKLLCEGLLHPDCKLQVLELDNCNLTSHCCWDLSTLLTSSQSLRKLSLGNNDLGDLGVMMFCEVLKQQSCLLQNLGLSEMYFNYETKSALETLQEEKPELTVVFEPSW

Turning to `CCN1CCC2CCN(c3nnc(-c4ccc5c(c4O)CCO5)c(C)n3)C2C1` (single isomer, unassigned) [Example 1B, 5-[3-[(3aR,7aS)-6-Ethyl-3,3a,4,5,7,7a-hexahydro-2H-pyrrolo[2,3-c]pyridin-1-yl]-5-methyl-1,2,4-triazin-6-yl]-2,3-dihydrobenzofuran-4-ol or 5-[3-[(3aS,7aR)-6-ethyl-3,3a,4,5,7,7a-hexahydro-2H-pyrrolo[2,3-c]pyridin-1-yl]-5-methyl-1,2,4-triazin-6-yl]-2,3-dihydrobenzofuran-4-ol], the values for the IC50 on NLRP3 [1] and at NLRP3 [2] were 64.4 nM and 375 nM, respectively. Taken in the same sequence, the figures for `Cc1nc(N2CC[C@@H]3CCN(C)C[C@@H]32)nnc1-c1ccc(C#N)cc1O` (single isomer, unassigned) [Example 4A, 4-[3-[(3aS,7aR)-6-Methyl-3,3a,4,5,7,7a-hexahydro-2H-pyrrolo[2,3-c]pyridin-1-yl]-5-methyl-1,2,4-triazin-6-yl]-3-hydroxy-benzonitrile or 4-[3-[(3aR,7aS)-6-methyl-3,3a,4,5,7,7a-hexahydro-2H-pyrrolo[2,3-c]pyridin-1-yl]-5-methyl-1,2,4-triazin-6-yl]-3-hydroxy-benzonitrile] were 47.4 nM and 41 nM. Taken in the same sequence, the figures for `Cc1nc(N2CCC3CCN(C)CC32)nnc1-c1ccc2c(c1O)CCO2` (single isomer, unassigned) [Example 3B, 5-[3-[(3aR,7aS)-6-Methyl-3,3a,4,5,7,7a-hexahydro-2H-pyrrolo[2,3-c]pyridin-1-yl]-5-methyl-1,2,4-triazin-6-yl]-2,3-dihydrobenzofuran-4-ol or 5-[3-[(3aS,7aR)-6-methyl-3,3a,4,5,7,7a-hexahydro-2H-pyrrolo[2,3-c]pyridin-1-yl]-5-methyl-1,2,4-triazin-6-yl]-2,3-dihydrobenzofuran-4-ol] were 52.2 nM and 115 nM.

Take `CCN1CC[C@H]2CCN(c3nnc(-c4ccc(C#N)cc4O)c(C)n3)[C@H]2C1` (single isomer, unassigned) [Example 2A, 4-[3-[(3aS,7aR)-6-Ethyl-3,3a,4,5,7,7a-hexahydro-2H-pyrrolo[2,3-c]pyridin-1-yl]-5-methyl-1,2,4-triazin-6-yl]-3-hydroxy-benzonitrile or 4-[3-[(3aR,7aS)-6-ethyl-3,3a,4,5,7,7a-hexahydro-2H-pyrrolo[2,3-c]pyridin-1-yl]-5-methyl-1,2,4-triazin-6-yl]-3-hydroxy-benzonitrile]: the IC50 (commonly the midpoint of a concentration-inhibition curve) at NLRP3 [1] was 36.4 nM; at NLRP3 [2], 38 nM. Consider `CCN1CCC2CCN(c3nnc(-c4ccc(C#N)cc4O)c(C)n3)C2C1` (single isomer, unassigned) [Example 2B, 4-[3-[(3aR,7aS)-6-Ethyl-3,3a,4,5,7,7a-hexahydro-2H-pyrrolo[2,3-c]pyridin-1-yl]-5-methyl-1,2,4-triazin-6-yl]-3-hydroxy-benzonitrile or 4-[3-[(3aS,7aR)-6-ethyl-3,3a,4,5,7,7a-hexahydro-2H-pyrrolo[2,3-c]pyridin-1-yl]-5-methyl-1,2,4-triazin-6-yl]-3-hydroxy-benzonitrile], for which the IC50 at NLRP3 [1] is > 1000 nM. With `Cc1nc(N2CC[C@@H]3CCN(C)C[C@@H]32)nnc1-c1ccc2c(c1O)CCO2` (single isomer, unassigned) [Example 3A, 5-[3-[(3aS,7aR)-6-Methyl-3,3a,4,5,7,7a-hexahydro-2H-pyrrolo[2,3-c]pyridin-1-yl]-5-methyl-1,2,4-triazin-6-yl]-2,3-dihydrobenzofuran-4-ol or 5-[3-[(3aR,7aS)-6-methyl-3,3a,4,5,7,7a-hexahydro-2H-pyrrolo[2,3-c]pyridin-1-yl]-5-methyl-1,2,4-triazin-6-yl]-2,3-dihydrobenzofuran-4-ol], the 50% inhibitory concentration (IC50) at NLRP3 [1] is 1.9 nM; on NLRP3 [2], 7 nM. Taken in the same sequence, the figures for `CCN1CCC2CCN(c3nnc(-c4ccc5c(c4O)CCO5)c(C)n3)C2C1` (single isomer, unassigned) [Example 1A, 5-[3-[(3aS,7aR)-6-Ethyl-3,3a,4,5,7,7a-hexahydro-2H-pyrrolo[2,3-c]pyridin-1-yl]-5-methyl-1,2,4-triazin-6-yl]-2,3-dihydrobenzofuran-4-ol or 5-[3-[(3aR,7aS)-6-ethyl-3,3a,4,5,7,7a-hexahydro-2H-pyrrolo[2,3-c]pyridin-1-yl]-5-methyl-1,2,4-triazin-6-yl]-2,3-dihydrobenzofuran-4-ol] were 1.8 nM and 12 nM. In the case of `Cc1nc(N2CCC3CCN(C)CC32)nnc1-c1ccc(C#N)cc1O` (single isomer, unassigned) [Example 4B, 4-[3-[(3aR,7aS)-6-Methyl-3,3a,4,5,7,7a-hexahydro-2H-pyrrolo[2,3-c]pyridin-1-yl]-5-methyl-1,2,4-triazin-6-yl]-3-hydroxy-benzonitrile or 4-[3-[(3aS,7aR)-6-methyl-3,3a,4,5,7,7a-hexahydro-2H-pyrrolo[2,3-c]pyridin-1-yl]-5-methyl-1,2,4-triazin-6-yl]-3-hydroxy-benzonitrile], on NLRP3 [1], the IC50 was > 1000 nM.
